Measurements from patent publication US8906925B2, “Pyrido[4,3-B]indoles containing rigid moieties” (Medivation Technologies, Inc., priority 2008, dated 2014).
Read-outs that look alike come from different tables or passages of the source.

Tests used:
[1] = molecular target: human recombinant serotonin (5-Hydroxytryptamine) 5-HT7 receptor (Homo sapiens, UniProt P34969); assay: Serotonin 5-HT7 radioligand binding ([3H]LSD); details: compound at 1 μM; read-out: Inhibition of ligand binding, Serotonin 5-HT7 (percent inhibition of specific binding)
human recombinant serotonin (5-Hydroxytryptamine) 5-HT7 receptor, sequence (P34969 whole entry): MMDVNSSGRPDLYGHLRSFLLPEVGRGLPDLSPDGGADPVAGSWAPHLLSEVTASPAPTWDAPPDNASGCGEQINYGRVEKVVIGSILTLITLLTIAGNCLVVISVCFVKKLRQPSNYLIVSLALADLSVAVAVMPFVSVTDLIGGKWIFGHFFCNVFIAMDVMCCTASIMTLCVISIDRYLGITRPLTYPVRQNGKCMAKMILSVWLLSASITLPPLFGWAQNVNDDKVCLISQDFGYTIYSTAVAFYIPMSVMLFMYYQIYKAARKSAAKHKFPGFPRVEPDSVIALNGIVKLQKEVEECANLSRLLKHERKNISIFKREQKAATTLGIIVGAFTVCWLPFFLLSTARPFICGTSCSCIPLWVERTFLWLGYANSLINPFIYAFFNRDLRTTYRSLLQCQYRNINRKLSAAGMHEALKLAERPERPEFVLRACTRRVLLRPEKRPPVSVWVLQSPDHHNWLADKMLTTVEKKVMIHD
Text: Receptor proteins were filtered and washed, the filters were then counted to determine [^3H]LSD specifically bound.

[2] = molecular target: T1, human recombinant adrenergic α1D receptor (Homo sapiens, UniProt P25100); assay: Adrenergic α1D radioligand binding ([3H]Prozosin); details: compound at 1 μM
T1 construct: expressed in transfected cells; host or cells: human embryonic kidney (HEK-293) cells
T1 sequence (P25100 1-572): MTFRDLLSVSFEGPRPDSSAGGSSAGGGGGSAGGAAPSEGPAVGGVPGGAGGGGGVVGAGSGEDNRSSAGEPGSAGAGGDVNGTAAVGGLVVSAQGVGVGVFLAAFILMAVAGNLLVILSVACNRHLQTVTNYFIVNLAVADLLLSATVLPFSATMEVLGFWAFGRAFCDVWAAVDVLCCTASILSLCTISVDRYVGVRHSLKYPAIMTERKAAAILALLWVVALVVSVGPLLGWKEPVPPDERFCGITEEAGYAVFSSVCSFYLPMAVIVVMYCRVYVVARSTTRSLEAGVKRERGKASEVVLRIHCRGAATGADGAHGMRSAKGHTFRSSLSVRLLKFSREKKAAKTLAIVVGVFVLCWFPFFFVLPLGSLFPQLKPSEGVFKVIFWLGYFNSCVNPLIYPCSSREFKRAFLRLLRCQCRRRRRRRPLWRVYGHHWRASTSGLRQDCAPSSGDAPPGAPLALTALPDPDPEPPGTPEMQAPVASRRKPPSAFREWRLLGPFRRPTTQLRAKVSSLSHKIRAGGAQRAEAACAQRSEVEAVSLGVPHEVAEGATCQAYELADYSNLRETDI
Experimental: Compounds of invention were incubated with 0.6 nM [^3H]Prozosin for 60 min. at 25° C. Non-specific binding was estimated in the presence of 10 μM phentolamine. Receptor proteins were filtered and washed, the filters were then counted to determine [^3H]Prozosin specifically bound. Compounds were screened at 1 μM or lower, using 1% DMSO as vehicle. Biochemical assay results are presented as the percent inhibition of specific binding in Table 9.

[3] = molecular target: human dopamine D2L receptor (Homo sapiens, UniProt P14416); assay: Dopamine D2L radioligand binding ([3H]Spiperone); details: compound at 1 μM
human dopamine D2L receptor, sequence (P14416 whole entry): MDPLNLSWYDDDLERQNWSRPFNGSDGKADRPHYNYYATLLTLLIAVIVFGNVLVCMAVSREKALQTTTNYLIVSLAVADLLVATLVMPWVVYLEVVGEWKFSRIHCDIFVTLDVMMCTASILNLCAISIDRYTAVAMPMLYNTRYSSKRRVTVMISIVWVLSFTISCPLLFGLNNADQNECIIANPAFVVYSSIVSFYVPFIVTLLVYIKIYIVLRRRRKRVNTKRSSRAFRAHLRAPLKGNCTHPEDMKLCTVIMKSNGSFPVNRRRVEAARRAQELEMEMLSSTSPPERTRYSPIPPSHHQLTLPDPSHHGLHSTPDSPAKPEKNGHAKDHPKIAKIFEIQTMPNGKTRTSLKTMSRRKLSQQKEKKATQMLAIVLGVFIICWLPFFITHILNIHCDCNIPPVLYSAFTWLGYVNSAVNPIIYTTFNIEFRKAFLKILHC
Text: Non-specific binding was estimated in the presence of […] Haloperidol. Receptor proteins were filtered and washed, the filters were then counted to determine [^3H]Spiperone specifically bound. […] Biochemical assay results are presented as the percent inhibition of specific binding in Table 9.

[4] = molecular target: T2, human recombinant histamine H2 receptor (Homo sapiens, UniProt P25021); assay: Histamine H2 radioligand binding ([125I]Aminopotentidine); details: read-out: Histamine Binding (1 μM) H2, percent inhibition of specific binding, 1 μM
T2 construct: expressed in transfected cells; host or cells: Chinese hamster ovary (CHO) K1 cells
T2 sequence (P25021 whole entry): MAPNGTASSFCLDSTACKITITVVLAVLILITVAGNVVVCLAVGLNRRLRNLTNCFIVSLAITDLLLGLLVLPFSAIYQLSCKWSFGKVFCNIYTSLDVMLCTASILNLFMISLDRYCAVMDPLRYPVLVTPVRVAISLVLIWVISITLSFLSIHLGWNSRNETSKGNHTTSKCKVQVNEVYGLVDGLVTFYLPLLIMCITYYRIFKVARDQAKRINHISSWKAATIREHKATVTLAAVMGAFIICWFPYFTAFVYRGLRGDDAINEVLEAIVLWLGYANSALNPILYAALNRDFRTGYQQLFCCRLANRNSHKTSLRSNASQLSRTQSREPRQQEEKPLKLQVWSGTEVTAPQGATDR
Method in brief: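 CHO-K1 cells expressing human recombinant H2 receptor, 50 mM phosphate buffer pH 7.4; compounds incubated with 0.1 nM [125I]aminopotentidine for 120 min at 25 °C. Nonspecific binding defined with 3 μM tiotidine; specifically bound radioligand counted after filtration and washing.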

[5] = molecular target: T3, human recombinant adrenergic α2B receptor (Homo sapiens, UniProt P18089); assay: Adrenergic α2B radioligand binding ([3H]Rauwolscine); details: compound at 1 μM
T3 construct: expressed in transfected cells; host or cells: Chinese hamster ovary (CHO-K1) cells
T3 sequence (P18089 1-450): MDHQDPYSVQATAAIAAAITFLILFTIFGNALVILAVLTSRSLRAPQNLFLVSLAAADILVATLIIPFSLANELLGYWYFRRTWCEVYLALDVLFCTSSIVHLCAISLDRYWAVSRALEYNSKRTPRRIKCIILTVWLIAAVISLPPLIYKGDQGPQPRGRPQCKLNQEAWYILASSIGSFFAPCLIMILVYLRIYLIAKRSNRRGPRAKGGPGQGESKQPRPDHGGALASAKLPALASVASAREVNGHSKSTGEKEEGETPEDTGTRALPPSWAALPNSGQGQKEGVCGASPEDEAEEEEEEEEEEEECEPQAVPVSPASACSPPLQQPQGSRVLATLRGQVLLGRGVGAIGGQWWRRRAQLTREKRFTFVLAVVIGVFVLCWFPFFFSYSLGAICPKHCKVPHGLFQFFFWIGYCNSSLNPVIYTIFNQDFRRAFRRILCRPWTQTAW
Method in brief: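 Membranes from CHO-K1 cells expressing the receptor were incubated with 2.5 nM [3H]Rauwolscine for 60 min at 25 °C in Tris-HCl buffer pH 7.4 with MgCl2, EDTA and BSA. Non-specific binding was defined with 10 μM prazosin. Compounds were tested at ≤1 μM in 1% DMSO and read out as % inhibition of specific binding after filtration.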

[6] = molecular target: T4, human recombinant serotonin (5-Hydroxytryptamine) 5-HT6 receptor (Homo sapiens, UniProt P50406); assay: Serotonin 5-HT6 radioligand binding ([3H]LSD); details: compound at 1 μM; read-out: Inhibition of ligand binding, Serotonin 5-HT6 (percent inhibition of specific binding)
T4 construct: expressed in transfected cells; host or cells: human HeLa cells
T4 sequence (P50406 whole entry): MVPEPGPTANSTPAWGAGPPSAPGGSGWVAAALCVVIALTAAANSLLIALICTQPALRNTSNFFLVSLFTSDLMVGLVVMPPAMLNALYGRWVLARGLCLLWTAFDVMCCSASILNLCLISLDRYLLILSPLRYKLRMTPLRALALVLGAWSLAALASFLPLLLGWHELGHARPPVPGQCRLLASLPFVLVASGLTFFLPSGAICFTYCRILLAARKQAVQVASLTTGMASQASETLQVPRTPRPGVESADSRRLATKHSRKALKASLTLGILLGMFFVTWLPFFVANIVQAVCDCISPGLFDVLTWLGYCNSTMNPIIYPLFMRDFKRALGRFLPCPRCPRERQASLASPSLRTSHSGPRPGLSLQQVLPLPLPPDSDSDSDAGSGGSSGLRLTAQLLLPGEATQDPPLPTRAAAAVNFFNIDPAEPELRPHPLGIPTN
Experimental: Compounds of the invention were incubated with 1.5 nM [3H]Lysergic acid diethylamide (LSD) for 120 min. at 37° C. […] Receptor proteins were filtered and washed, the filters were then counted to determine [3H]LSD specifically bound. Compounds were screened at 1 μM or lower, using 1% DMSO as vehicle. Biochemical assay results are presented as the percent inhibition of specific binding in Table 10.

[7] = molecular target: T5, human recombinant serotonin (5-Hydroxytryptamine) 5-HT2A receptor (Homo sapiens, UniProt P28223); assay: Serotonin 5-HT2A radioligand binding ([3H]Ketanserin); details: read-out: Inhibition of ligand binding, Serotonin 5-HT2A (percent inhibition of specific binding), compound at 1 μM
T5 construct: expressed in transfected cells; host or cells: Chinese hamster ovary (CHO-K1) cells
T5 sequence (P28223 whole entry): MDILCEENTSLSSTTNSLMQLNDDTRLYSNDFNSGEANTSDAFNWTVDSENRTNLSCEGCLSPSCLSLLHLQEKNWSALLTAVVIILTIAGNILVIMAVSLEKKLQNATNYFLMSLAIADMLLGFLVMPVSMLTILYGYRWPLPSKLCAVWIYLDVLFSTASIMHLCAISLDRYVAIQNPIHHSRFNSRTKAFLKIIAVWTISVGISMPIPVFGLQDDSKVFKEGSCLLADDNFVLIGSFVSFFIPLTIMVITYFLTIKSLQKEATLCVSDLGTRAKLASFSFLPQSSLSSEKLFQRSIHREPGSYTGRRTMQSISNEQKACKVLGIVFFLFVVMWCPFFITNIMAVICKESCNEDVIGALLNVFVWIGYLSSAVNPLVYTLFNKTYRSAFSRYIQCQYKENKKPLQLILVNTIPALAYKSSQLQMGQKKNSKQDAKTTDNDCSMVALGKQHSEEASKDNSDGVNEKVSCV
Experimental: Compounds of the invention were incubated with 0.5 nM [^3H]Ketanserin for 60 min. at 25° C. Non-specific binding was estimated in the presence of 1 μM Mianserin. Receptor proteins were filtered and washed, the filters were then counted to determine [^3H]Ketanserin specifically bound.

SMILES | inhibition at 1 µM [1] [%] | inhibition at 1 µM ([2]; read-out: Inhibition of ligand binding, Adrenergic α1D (percent inhibition of specific binding)) [%] | inhibition at 1 µM ([3]; […] [3H]Spiperone, read-out: Inhibition of ligand binding, Dopamine D2L (percent inhibition of specific binding)) [%] | inhibition at 1 µM [4] [%] | inhibition at 1 µM ([5]; […] [3H]Rauwolscine, read-out: Inhibition of ligand binding, Adrenergic α2B (percent inhibition of specific binding)) [%] | inhibition at 1 µM [6] [%] | inhibition at 1 µM [7] [%] | inhibition at 1 µM ([2]; percent inhibition of specific binding, read-out: Inhibition of ligand binding, Adrenergic α1D) [%] | inhibition at 1 µM ([3]; percent inhibition of specific binding, read-out: Inhibition of ligand binding, Dopamine D2L) [%] | inhibition at 1 µM ([5]; percent inhibition of specific binding, read-out: Inhibition of ligand binding, Adrenergic α2B) [%]
CNC(=O)c1ccc2c(c1)c1c(n2C#Cc2ccc(F)cc2)CCN(C)C1 [Compound No. 483, 5-((4-fluorophenyl)ethynyl)-N,2-dimethyl-2,3,4,5-tetrahydro-1H-pyrido[4,3-b]indole-8-carboxamide] | 16 | 59 | 37 | 10 | 14 | 53 | 34 |  |  | 
C/C(=C\n1c2c(c3cc(Cl)ccc31)CN(C)CC2)c1ccccc1 [compound 106, (E)-8-chloro-2,3,4,5-tetrahydro-2-methyl-5-(2-phenylprop-1-enyl)-1H-pyrido[4,3-b]indole] | 98 |  |  | 99 |  | 104 | 98 | 92 | 90 | 114
